Measured values published in patent US10213418B2, “Therapeutic uses of berberine formulations” (TWi Biotechnology, Inc., priority 2013, dated 2019).
Like-named read-outs stand apart in the source and are kept apart here. Blank lines part the entries; values can stand above or below the compound they belong to.

Tests used:
[1] = patients on therapy; cited from earlier work
[2] = Partition coefficient in an octanol-water system; format: physicochemical; settings: berberine alone
Solubility = format: physicochemical

Compound: Nc1cc(C(F)(F)F)c(-c2cc(N3CCOCC3)nc(N3CCOCC3)n2)cn1 [BKM-120]
maculopapular rash described [1]: 37 % of patients

Compound: CN(C)C/C=C/C(=O)Nc1cc2c(Nc3ccc(F)c(Cl)c3)ncnc2cc1O[C@H]1CCOC1 [afatinib]
papulopustular rash reported [1]: 90 % of patients

Compound: Cn1cnc2c(F)c(Nc3ccc(Br)cc3Cl)c(C(=O)NOCCO)cc21 [selumetinib]
papulopustular rash reported [1]: 93 % of patients

logP [2]: 0.0294 | solubility (Solubility; aqueous berberine solubility): 1.57 mg/mL | solubility (Solubility; medium containing SDS (sodium dodecyl sulfate), aqueous with cosolvent or surfactant or cyclodextrin, pH of between 4 and 7, read-out: berberine solubility in the presence of SDS): 0.01 to 0.06 mg/mL | solubility (Solubility; water, aqueous berberine solubility, read-out: solubility): 1.57 mg/mL
Compound: COc1ccc2cc3[n+](cc2c1OC)CCc1cc2c(cc1-3)OCO2 [berberine, 5,6-dihydro-9,10-dimethoxybenzo(g)-1,3-benzodioxolo (5,6-a) quinolizinium]

Compound: nivolumab: anti-PD-1 inhibitor
maculopapular rash described [1]: 26 % of patients

Compound: ipilimumab: anti-CTLA-4 inhibitor
maculopapular rash described [1]: 33 % of patients

Compound: NC1(c2ccc(-c3nc4ccn5c(=O)[nH]nc5c4cc3-c3ccccc3)cc2)CCC1 [MK2206]
maculopapular rash described [1]: 52 % of patients
